The values that follow come from ChEMBL document CHEMBL1938230, “6-Position optimization of tricyclic 4-quinolone-based inhibitors of glycogen synthase kinase-3β: discovery of nitrile derivatives with picomolar potency” (Bioorg Med Chem Lett, 2012).

Type in all cases: cell-free
The target in test [1] is PI4KA/PI4KAP2 (Homo sapiens) (UniProt P42356+A4QPH2). Description: Inhibition of human PI4KA/PI4KAP2 in HL-60 cells lysate assessed as reduction of labeling of acyl-phosphate ATP probe at 100 nM.
The target of test [2] is T1, Serine/threonine-protein kinase tousled-like 1 (Homo sapiens) (UniProt Q9UKI8).
T1 sequence (whole entry): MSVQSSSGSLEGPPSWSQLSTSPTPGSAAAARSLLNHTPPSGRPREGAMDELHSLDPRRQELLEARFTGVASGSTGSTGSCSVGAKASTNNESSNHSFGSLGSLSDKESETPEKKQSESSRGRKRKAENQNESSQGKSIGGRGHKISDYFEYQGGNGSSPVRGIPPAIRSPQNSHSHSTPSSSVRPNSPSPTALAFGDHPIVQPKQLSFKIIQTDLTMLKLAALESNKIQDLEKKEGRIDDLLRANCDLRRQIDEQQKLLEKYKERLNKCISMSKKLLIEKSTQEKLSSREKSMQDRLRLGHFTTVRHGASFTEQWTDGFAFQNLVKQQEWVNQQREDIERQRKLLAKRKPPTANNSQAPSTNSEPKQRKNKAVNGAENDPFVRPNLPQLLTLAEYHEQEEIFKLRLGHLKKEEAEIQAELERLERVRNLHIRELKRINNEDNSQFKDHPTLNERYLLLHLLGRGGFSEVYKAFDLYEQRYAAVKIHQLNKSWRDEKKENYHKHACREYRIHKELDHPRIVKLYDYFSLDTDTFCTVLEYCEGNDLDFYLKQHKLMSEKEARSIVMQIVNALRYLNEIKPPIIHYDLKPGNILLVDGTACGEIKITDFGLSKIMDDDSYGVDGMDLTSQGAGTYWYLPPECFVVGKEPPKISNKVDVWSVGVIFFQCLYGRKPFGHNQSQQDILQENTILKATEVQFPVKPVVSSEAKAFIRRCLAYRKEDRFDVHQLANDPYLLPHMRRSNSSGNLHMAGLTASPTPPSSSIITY
Nature of the test: Inhibition of human TLK1 in HL-60 cells lysate assessed as reduction of labeling of acyl-phosphate ATP probe at 100 nM.

For test [3], the target named is Serine/threonine-protein kinase tousled-like 2 (Homo sapiens) (UniProt Q86UE8). Description: Inhibition of human TLK2 in HL-60 cells lysate assessed as reduction of labeling of acyl-phosphate ATP probe at 100 nM.
Test [4] has as its target T2, Dual specificity mitogen-activated protein kinase kinase 4 (Homo sapiens) (UniProt P45985).
T2 sequence (whole entry): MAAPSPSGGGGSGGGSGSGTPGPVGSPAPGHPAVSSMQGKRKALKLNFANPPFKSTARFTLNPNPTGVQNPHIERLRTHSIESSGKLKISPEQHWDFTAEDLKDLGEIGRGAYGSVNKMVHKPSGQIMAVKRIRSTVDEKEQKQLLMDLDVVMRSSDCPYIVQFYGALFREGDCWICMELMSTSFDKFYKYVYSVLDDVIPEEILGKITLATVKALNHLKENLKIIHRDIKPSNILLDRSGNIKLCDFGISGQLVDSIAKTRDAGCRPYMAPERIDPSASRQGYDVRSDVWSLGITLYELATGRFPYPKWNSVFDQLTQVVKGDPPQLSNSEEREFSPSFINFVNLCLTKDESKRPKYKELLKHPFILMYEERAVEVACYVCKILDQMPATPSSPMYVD
Nature of the test: Inhibition of human MAP2K4 in HL-60 cells lysate assessed as reduction of labeling of acyl-phosphate ATP probe at 100 nM.

For test [5], the target named is T3, Serine/threonine-protein kinase 4 (Homo sapiens) (UniProt Q13043).
T3 sequence (whole entry): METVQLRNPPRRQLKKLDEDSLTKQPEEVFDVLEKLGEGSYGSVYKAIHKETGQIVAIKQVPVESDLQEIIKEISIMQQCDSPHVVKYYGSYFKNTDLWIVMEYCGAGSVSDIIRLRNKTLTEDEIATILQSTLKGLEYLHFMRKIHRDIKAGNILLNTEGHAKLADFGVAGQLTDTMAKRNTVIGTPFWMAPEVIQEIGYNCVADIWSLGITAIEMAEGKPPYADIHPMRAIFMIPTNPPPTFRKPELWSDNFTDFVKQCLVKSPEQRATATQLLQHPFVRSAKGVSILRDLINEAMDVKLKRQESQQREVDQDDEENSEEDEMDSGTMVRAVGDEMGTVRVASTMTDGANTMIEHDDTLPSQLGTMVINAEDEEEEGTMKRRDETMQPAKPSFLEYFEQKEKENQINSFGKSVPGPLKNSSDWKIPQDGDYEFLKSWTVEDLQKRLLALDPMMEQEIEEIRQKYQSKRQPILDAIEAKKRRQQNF
Description: Inhibition of human MST1 in HL-60 cells lysate assessed as reduction of labeling of acyl-phosphate ATP probe at 100 nM.

The target in test [6] is Serine/threonine-protein kinase OSR1 (Homo sapiens) (UniProt O95747). Description: Inhibition of human OSR1 in HL-60 cells lysate assessed as reduction of labeling of acyl-phosphate ATP probe at 100 nM.
Test [7] deals with T4, STE20-related kinase adapter protein alpha (Homo sapiens) (UniProt Q7RTN6).
T4 sequence (whole entry): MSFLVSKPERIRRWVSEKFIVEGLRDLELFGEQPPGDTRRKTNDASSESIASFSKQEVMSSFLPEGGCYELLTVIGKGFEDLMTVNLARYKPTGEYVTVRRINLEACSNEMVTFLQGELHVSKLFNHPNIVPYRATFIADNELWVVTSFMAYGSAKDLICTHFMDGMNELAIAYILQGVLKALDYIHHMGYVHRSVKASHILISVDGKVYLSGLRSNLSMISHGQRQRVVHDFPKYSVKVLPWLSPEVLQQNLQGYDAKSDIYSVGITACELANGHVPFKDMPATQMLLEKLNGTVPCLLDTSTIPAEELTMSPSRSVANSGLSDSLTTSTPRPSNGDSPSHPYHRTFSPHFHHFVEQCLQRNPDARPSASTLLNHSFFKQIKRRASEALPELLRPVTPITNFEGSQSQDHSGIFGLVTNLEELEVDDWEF
Nature of the test: Inhibition of human STLK5 in HL-60 cells lysate assessed as reduction of labeling of acyl-phosphate ATP probe at 100 nM.

Test [8] addresses Tyrosine-protein kinase Fes/Fps (Homo sapiens) (UniProt P07332). Description: Inhibition of human FES in HL-60 cells lysate assessed as reduction of labeling of acyl-phosphate ATP probe at 100 nM.
The target in test [9] is Tyrosine-protein kinase HCK (Homo sapiens) (UniProt P08631). Description: Inhibition of human HCK in HL-60 cells lysate assessed as reduction of labeling of acyl-phosphate ATP probe at 100 nM.
Test [10] has as its target Glycogen synthase kinase-3 beta (Homo sapiens, UniProt P49841). Description: Inhibition of human GSK3-beta in HL-60 cells lysate assessed as reduction of labelling of acyl-phosphate ATP probe at 100 nM.
The target of test [11] is Cyclin-dependent kinase 7 (Homo sapiens) (UniProt P50613). Description: Inhibition of human CDK7 in HL-60 cells lysate assessed as reduction of labeling of acyl-phosphate ATP probe at 100 nM.
Cyclin-dependent kinase 7 (Homo sapiens), sequence (P50613 whole entry): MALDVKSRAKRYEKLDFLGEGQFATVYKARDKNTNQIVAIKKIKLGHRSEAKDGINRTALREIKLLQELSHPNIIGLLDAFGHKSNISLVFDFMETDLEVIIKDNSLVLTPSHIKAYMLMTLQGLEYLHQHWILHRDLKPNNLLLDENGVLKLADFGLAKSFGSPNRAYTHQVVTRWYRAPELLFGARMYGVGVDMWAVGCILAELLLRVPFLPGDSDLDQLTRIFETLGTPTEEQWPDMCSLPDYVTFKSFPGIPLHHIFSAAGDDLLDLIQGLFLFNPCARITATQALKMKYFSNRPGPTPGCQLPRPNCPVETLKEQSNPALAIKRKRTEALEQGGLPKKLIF

Tyrosine-protein kinase HCK (Homo sapiens), sequence (P08631 2-526 limits assumed): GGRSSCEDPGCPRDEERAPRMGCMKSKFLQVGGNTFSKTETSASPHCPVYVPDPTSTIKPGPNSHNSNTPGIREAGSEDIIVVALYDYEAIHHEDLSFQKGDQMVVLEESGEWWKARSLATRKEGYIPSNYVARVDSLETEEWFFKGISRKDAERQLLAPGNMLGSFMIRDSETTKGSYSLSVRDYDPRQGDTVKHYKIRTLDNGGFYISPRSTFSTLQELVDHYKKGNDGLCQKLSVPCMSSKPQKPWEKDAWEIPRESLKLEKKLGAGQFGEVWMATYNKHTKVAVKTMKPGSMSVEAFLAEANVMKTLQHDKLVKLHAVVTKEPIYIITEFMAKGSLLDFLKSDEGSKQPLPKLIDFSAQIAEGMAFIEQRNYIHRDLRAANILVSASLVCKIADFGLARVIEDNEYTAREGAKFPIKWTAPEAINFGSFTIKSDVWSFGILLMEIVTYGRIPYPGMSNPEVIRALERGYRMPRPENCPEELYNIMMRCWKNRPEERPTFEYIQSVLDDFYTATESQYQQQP
Serine/threonine-protein kinase OSR1 (Homo sapiens), sequence (O95747 2-527 limits assumed): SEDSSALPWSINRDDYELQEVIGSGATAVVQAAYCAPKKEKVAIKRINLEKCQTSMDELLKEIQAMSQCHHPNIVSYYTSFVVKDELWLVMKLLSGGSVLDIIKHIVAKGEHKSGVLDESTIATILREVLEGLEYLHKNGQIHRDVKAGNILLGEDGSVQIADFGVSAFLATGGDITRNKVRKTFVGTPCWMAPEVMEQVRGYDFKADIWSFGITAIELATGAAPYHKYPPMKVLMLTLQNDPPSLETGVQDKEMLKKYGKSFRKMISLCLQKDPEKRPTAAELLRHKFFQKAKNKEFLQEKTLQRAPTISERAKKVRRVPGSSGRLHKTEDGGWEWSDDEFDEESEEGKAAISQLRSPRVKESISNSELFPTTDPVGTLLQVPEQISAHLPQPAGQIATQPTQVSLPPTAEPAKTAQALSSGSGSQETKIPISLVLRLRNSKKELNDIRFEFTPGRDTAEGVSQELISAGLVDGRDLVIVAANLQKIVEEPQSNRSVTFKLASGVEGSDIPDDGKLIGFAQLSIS
PI4KA/PI4KAP2 (Homo sapiens), sequence (A4QPH2 whole entry, looked up): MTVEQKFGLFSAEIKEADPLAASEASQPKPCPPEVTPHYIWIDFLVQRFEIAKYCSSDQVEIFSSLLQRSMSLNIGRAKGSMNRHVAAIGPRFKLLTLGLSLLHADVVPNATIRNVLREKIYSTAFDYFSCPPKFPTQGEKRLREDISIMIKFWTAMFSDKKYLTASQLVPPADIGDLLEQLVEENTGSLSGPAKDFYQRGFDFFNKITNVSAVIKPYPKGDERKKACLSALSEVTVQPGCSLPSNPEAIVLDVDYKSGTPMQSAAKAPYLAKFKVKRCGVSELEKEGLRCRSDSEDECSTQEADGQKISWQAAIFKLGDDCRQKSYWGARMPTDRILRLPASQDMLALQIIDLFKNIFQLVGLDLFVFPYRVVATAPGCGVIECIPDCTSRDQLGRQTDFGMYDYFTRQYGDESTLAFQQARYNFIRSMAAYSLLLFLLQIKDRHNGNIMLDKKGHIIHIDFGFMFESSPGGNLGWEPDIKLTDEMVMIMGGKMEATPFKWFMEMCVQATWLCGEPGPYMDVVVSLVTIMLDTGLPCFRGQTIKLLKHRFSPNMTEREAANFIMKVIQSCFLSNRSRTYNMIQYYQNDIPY
PI4KA/PI4KAP2 (Homo sapiens), sequence (P42356 whole entry, looked up): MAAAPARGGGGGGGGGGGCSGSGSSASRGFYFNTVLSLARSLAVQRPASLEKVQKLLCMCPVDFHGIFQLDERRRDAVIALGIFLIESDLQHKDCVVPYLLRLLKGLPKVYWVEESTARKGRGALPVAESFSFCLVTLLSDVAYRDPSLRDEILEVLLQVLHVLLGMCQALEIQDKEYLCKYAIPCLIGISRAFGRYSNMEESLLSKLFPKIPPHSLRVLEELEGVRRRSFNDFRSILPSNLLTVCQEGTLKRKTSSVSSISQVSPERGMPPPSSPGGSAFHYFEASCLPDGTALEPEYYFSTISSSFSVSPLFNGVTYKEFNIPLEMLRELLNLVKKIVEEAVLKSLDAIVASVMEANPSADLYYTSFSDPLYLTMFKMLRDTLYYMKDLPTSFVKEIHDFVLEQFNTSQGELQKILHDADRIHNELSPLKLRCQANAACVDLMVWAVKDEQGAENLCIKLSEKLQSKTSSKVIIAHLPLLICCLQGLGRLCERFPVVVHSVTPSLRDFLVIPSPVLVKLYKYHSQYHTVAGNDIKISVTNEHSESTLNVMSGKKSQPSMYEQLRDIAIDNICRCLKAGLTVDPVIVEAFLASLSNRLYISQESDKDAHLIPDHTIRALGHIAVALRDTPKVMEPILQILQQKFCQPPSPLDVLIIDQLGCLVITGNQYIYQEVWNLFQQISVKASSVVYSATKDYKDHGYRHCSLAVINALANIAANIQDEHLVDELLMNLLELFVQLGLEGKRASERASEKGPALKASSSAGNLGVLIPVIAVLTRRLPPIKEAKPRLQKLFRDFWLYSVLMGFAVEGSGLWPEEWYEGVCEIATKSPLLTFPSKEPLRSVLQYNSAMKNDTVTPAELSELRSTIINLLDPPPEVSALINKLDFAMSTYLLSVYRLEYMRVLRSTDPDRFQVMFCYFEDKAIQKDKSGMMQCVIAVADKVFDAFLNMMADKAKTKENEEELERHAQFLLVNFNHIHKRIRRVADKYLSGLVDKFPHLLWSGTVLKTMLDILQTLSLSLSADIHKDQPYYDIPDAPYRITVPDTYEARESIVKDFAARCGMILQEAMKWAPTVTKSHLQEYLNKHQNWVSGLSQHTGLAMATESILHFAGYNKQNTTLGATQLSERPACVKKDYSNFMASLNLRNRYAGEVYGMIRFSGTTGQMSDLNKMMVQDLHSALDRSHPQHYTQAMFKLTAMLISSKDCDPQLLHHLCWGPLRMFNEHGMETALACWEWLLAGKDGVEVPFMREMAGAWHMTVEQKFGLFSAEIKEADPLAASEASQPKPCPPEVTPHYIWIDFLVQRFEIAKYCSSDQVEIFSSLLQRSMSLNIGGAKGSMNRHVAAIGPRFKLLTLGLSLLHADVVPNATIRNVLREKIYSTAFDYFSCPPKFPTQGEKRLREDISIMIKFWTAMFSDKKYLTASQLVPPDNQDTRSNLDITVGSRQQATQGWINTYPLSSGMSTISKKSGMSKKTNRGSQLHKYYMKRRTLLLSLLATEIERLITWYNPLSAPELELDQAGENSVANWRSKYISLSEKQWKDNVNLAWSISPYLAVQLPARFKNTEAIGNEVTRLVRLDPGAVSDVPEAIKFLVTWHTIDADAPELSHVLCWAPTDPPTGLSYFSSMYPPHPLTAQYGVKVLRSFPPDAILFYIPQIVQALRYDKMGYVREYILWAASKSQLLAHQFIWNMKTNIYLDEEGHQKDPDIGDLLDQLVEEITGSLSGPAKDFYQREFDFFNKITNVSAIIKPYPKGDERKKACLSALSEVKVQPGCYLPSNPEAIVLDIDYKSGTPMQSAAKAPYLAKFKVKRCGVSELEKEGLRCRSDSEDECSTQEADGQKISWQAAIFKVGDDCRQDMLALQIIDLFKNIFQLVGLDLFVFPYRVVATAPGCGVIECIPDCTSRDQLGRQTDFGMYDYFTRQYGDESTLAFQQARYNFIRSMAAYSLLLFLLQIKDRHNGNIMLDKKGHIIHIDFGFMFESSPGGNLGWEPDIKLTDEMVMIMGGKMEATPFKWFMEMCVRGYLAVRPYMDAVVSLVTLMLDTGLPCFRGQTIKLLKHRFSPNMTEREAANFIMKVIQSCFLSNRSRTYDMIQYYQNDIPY
Serine/threonine-protein kinase tousled-like 2 (Homo sapiens), sequence (Q86UE8 whole entry, looked up): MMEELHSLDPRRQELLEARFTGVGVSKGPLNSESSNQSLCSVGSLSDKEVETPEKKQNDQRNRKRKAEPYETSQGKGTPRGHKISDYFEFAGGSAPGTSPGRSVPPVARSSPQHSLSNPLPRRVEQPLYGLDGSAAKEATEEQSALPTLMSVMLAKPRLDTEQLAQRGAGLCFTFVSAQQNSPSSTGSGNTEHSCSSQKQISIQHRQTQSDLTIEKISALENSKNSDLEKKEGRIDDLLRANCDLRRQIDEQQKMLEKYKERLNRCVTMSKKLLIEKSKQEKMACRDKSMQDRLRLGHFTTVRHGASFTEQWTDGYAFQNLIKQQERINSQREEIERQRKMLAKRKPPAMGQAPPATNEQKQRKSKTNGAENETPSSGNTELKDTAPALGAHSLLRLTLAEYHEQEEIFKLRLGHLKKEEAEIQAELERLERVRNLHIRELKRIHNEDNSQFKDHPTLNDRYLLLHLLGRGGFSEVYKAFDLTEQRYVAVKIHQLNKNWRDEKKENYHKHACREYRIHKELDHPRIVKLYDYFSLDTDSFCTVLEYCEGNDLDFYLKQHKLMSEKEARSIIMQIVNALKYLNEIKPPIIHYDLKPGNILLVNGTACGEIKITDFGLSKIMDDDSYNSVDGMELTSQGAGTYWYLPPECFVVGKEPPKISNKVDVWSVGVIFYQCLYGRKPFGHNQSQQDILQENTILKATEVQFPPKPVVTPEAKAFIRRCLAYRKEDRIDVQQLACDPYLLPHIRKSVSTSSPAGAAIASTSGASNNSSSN

Take `C[C@H]1COc2c(NCCCc3ccccn3)c(F)c(N)c3c(=O)c(C#N)cn1c23`: the inhibition in test [1], in test [2], in [3], in test [4], in [5] and in test [6] was less than 35% throughout. The inhibition in test [7] is less than 35%; in test [8], less than 35%; in test [9] it was less than 35%; in test [10], more than 99.5%; in test [11], less than 35%.
`C[C@H]1COc2c(NCCCc3ccccn3)c(F)c(N)c3c(=O)c(C(=O)O)cn1c23`: the inhibition in [1], in test [2], in [3], in [4], in test [5] and in test [6] was less than 35% in each case. Also, the inhibition is less than 35% in test [7]; less than 35% in test [8]; less than 35% in [9]; 82.9% in test [10]; less than 35% in test [11].
Regarding `C[C@H]1COc2c(NCCCn3cccn3)c(F)c(N)c3c(=O)c(C(=O)O)cn1c23`, the inhibition in test [1], in test [2], in [3], in test [4], in [5] and in test [6] was less than 35% each time. Moreover, the inhibition in test [7] is less than 35%; in test [8] it was less than 35%; in test [9], less than 35%; in [10], 87.8%; in test [11], less than 35%.
Regarding `C[C@H]1COc2c(NCCCn3cccn3)c(F)c(N)c3c(=O)c(C#N)cn1c23`, the inhibition in [1], in test [2], in test [3], in [4], in test [5] and in [6] was less than 35% each time. In addition, the inhibition in test [7] was less than 35%; in [8] it was less than 35%; in test [9] it was less than 35%; in test [10], 99.2%; in [11] it was less than 35%.

Broadly, the inhibition is the change of the read-out against control, counted positive when it falls.
